Legend:
Type in all cases: physicochemical
[1] = UV absorption spectrum in acetonitrile; conditions: for Maximum absorption wavelength (nm): absorption in a range of 300 nm to 400 nm; for Molar extinction coefficient ϵ (at maximum absorption wavelength): at λmax in 300 nm to 400 nm
Description: (§1) The sulfonic acid derivative compound of Compound No. 4 and Comparative Compound 1 represented by the formula below were each dissolved in acetonitrile, and their absorption spectra were measured using a solar photometer U-3010 to determine the values of λmax and α (molar extinction coefficient) for absorption in a range of 300 nm to 400 nm as well as the value of E at 365 nm. In addition, their solubility to propylene glycol monomethyl ether acetate at 25° C. was evaluated. As for the solubility, the concentration of each compound was increased by 1%-by-mass increments, and the concentration at which no compound was left undissolved was determined to indicate the solubility in terms of this concentration.

[2] = Acid generation rate (photodegradation rate by HPLC after 365 nm UV irradiation); conditions: 365 nm UV 100 mW/cm^2, 1.5×10^−4 mol/L in acetonitrile/water=9/1
Description: For each of the sulfonic acid derivative compound of Compound No. 4 and Comparative Compound 1, a 1.5×10^−4 mol/L acetonitrile/water mixed solution (volume ratio: acetonitrile/water=9/1) was prepared, and exactly 5.0 mL of the mixed solution was placed in a Petri dish having an inner diameter of 42 mm. Using a UV lamp and a cut filter transmitting only light having a wavelength of about 365 nm, which are manufactured by Hoya Candeo Optronics Corporation, the mixed solution was irradiated with UV having an intensity of 100 mW/cm^2. The irradiation was performed for 0.5 seconds, 1 second and 3 seconds for each solution. After this exposure, the photodegradation rate (%) was determined by HPLC as the acid generation rate.

[3] = Solubility to propylene glycol monomethyl ether acetate; conditions: propylene glycol monomethyl ether acetate at 25° C., 1%-by-mass increments
Description: as §1

Transmittance at 365 nm = conditions: in acetonitrile
Description: The sulfonic acid derivative compound of Compound No. 4 and Comparative Compound 2 represented by the formula below were each dissolved in acetonitrile, and their absorption spectra were measured using a solar photometer U-3010 to determine the transmittance at 365 nm.

| Molar extinction coefficient, ϵ, at 365 nm [1] | Maximum absorption wavelength (nm) [1] | Molar extinction coefficient ϵ (at maximum absorption wavelength) [1] | Photodegradation rate (%) ([2]; 0.5 seconds) | Photodegradation rate (%) ([2]; 1 second) | Photodegradation rate (%) ([2]; 3 seconds) | Solubility (% by mass) [3] | Transmittance at 365 nm (%) (Transmittance at 365 nm) | Compound |
| --- | --- | --- | --- | --- | --- | --- | --- | --- |
| 0.7 × 10^3 | 336.0 nm | 1.42 × 10^4 | 21.4% | 36.9% | 68.4% | 1.9 % by mass |  | O=C1c2cccc3cccc(c23)C(=O)N1OS(=O)(=O)C(F)(F)F [Comparative Compound 1] |
|  |  |  |  |  |  |  | 1.1% | CCCCc1ccc2c3c(cccc13)C(=O)N(OS(=O)(=O)C(F)(F)F)C2=O [Comparative Compound 2] |
| 5.40 × 10^3 | 339.5 nm | 1.31 × 10^4 | 62.0% | 86.7% | 100% | 20 % by mass | 34.1% | CCCCc1cc2c3c(cccc3c1)C(=O)N(OS(=O)(=O)C(F)(F)F)C2=O [Compound No. 4] |
